Measurements: the supplement of paper PMC11061612

Columns and labels:
Assay in all cases: Bliss excess, mean over the matrix (fraction); higher = more synergy
[1] = system: HCC-827 (Lung Adenocarcinoma)
Summary of the method: (§1)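 Cell lines in DMEM/F12 or RPMI with 10% FBS were plated in 1536-well plates, held 24 hours at 37°C, 5% CO2, then given two-drug dose matrices for 72 hours (DMSO typically 0.2%). Viability was read by CellTiter-Glo 2.0 luminescence and scaled as inhibition from 0 (vehicle wells) to 1 (blank wells). Combination Emax is the second-highest inhibition in the matrix; Bliss excess is observed combination effect minus expected EA + EB − EA·EB, EA and EB being single-agent effects.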

[2] = system: HOP-92 (Non-Small Cell Lung Carcinoma)
Summary of the method: as §1

[3] = system: MEG-01 (Chronic Myelogenous Leukemia)
Summary of the method: as §1

[4] = system: SLVL (B-Cell Non-Hodgkin's Lymphoma)
Summary of the method: as §1

[5] = system: JHH-6 (Hepatocellular Carcinoma)
Summary of the method: as §1

[6] = system: P31-FUJ (Acute Myeloid Leukemia)
Summary of the method: as §1

[7] = system: SNG-M (Endometrial Carcinoma)
Summary of the method: as §1

[8] = system: TYK-nu (Ovarian Carcinoma)
Summary of the method: as §1

[9] = system: BICR78 (Oral Cavity Carcinoma)
Summary of the method: as §1

[10] = system: A172 (Glioblastoma)
Summary of the method: as §1

[11] = system: WSU-DLCL2 (B-Cell Non-Hodgkin's Lymphoma)
Summary of the method: as §1

[12] = system: CS1 (Chondrosarcoma)
Summary of the method: as §1

[13] = system: H4 (Low Grade Glioma)
Summary of the method: as §1

[14] = system: MSTO-211H (Mesothelioma)
Summary of the method: as §1

[15] = system: HCT-116 (Colorectal Carcinoma)
Summary of the method: as §1

[16] = system: EFM-192A (Breast Carcinoma)
Summary of the method: as §1

[17] = system: 647-V (Bladder Carcinoma)
Summary of the method: as §1

[18] = system: SK-UT-1 (Other Solid Carcinomas)
Summary of the method: as §1

[19] = system: SNU-61 (Colorectal Carcinoma)
Summary of the method: as §1

[20] = system: EKVX (Non-Small Cell Lung Carcinoma)
Summary of the method: as §1

SMILES	Bliss excess [1]	Bliss excess [2]	Bliss excess [3]	Bliss excess [4]	Bliss excess [5]	Bliss excess [6]	Bliss excess [7]	Bliss excess [8]	Bliss excess [9]	Bliss excess [10]	Bliss excess [11]	Bliss excess [12]	Bliss excess [13]	Bliss excess [14]	Bliss excess [15]	Bliss excess [16]	Bliss excess [17]	Bliss excess [18]	Bliss excess [19]	Bliss excess [20]
CC1(C)CCC(CN2CCN(c3ccc(C(=O)NS(=O)(=O)c4ccc(NCC5CCOCC5)c([N+](=O)[O-])c4)c(Oc4cnc5[nH]ccc5c4)c3)CC2)=C(c2ccc(Cl)cc2)C1 [Venetoclax] + C=CCn1c(=O)c2cnc(Nc3ccc(N4CCN(C)CC4)cc3)nc2n1-c1cccc(C(C)(C)O)n1 [AZD1775] (first compound max 1 µM, partner max 1 µM)	-0.0764	0.0046	0.0146	0.0249	-0.0348	0.0685	-0.0002	-0.107	0.0011	-0.0833	0.0465	0.0589	0.0732	-0.0183	-0.0765	-0.0253	-0.0274	0.0562	-0.0321	-0.075
CC1(C)CCC(CN2CCN(c3ccc(C(=O)NS(=O)(=O)c4ccc(NCC5CCOCC5)c([N+](=O)[O-])c4)c(Oc4cnc5[nH]ccc5c4)c3)CC2)=C(c2ccc(Cl)cc2)C1 [Venetoclax] + CCN(CCO)CCCOc1ccc2c(Nc3cc(CC(=O)Nc4cccc(F)c4)[nH]n3)ncnc2c1 [AZD2811] (first compound max 1 µM, 7x7, partner max 1 µM)	-0.015	0.0135	-0.0108	0.0685	-0.049	-0.0512	-0.0246	-0.0266	-0.0393	-0.0296	0.301	-0.0259	0.0007	-0.0066	0.008	0.0097	0.0533	0.0491	-0.0084	-0.044
CC1(C)CCC(CN2CCN(c3ccc(C(=O)NS(=O)(=O)c4ccc(NCC5CCOCC5)c([N+](=O)[O-])c4)c(Oc4cnc5[nH]ccc5c4)c3)CC2)=C(c2ccc(Cl)cc2)C1 [Venetoclax] + CN(C)CCCOc1ccc(-c2ccc3ncc4c(c3c2)n(C2CCOCC2)c(=O)n4C)cn1 [AZD0156] (first compound max 1 µM, 7x7, partner max 1 µM)	-0.0453	0.0047	-0.0291	0.058	-0.0391	-0.0179	-0.06	-0.0516	0.0047	-0.0482	0.0518	0.0599	-0.0861	-0.0243	-0.0286	-0.0508	-0.0036	-0.013	0.0062	-0.0365
CC1(C)CCC(CN2CCN(c3ccc(C(=O)NS(=O)(=O)c4ccc(NCC5CCOCC5)c([N+](=O)[O-])c4)c(Oc4cnc5[nH]ccc5c4)c3)CC2)=C(c2ccc(Cl)cc2)C1 [Venetoclax] + COc1cc(Nc2ncc3c(n2)-c2ccc(Cl)cc2C(c2c(F)cccc2OC)=NC3)ccc1C(=O)O [Alisertib] (first compound max 1 µM, 7x7, partner max 10 µM)	-0.0795	0.082	0.0985	0.0761	-0.0311	0.0678	-0.0189	-0.0415	-0.0276	-0.108	0.238	-0.0227	-0.0124	0.0116	-0.0043	-0.0548	-0.0092	0.0971	-0.0091	-0.0457
